Earlier results as cited in patent US6899896B2, “Hydrogel-driven layered drug dosage form” (Pfizer Inc, priority 1999, dated 2005).
Where two headings read alike, the source gives them in different places.

In the case of `CN[C@H]1CC[C@@H](c2ccc(Cl)c(Cl)c2)c2ccccc21` [Sertraline, (1S-cis)-4-(3,4-dichlorophenyl)-1,2,3,4-tetrahydro-N-methyl-1-naphthalenamine], the solubility of sertraline (pH 2.0) is given as 6 mgA/mL, the solubility of sertraline (pH 6.5) is given as “about 1 mgA/mL” and the solubility of sertraline (pH about 7.0) is given as “about 0.2 mgA/mL”. The solubility of sertraline (pH about 7.5) was “about 0.05 mgA/mL”.
